From US20260274892A1, “MACROCYCLIC BROAD SPECTRUM ANTIBIOTICS” (RQx Pharmaceuticals, Inc., priority 2017, published 2026)
One block for each molecule: values may come before it.

Tested on: Escherichia coli ATCC 25922
Assay: Minimum inhibitory concentration (MIC), CLSI broth micro-dilution, E. coli
Assay type: cell-based
Settings: Escherichia coli
Summary of the method: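 Antibacterial potency is measured as MIC by the CLSI broth dilution method. Bacteria at OD600 0.0005 in Tween-80-supplemented cation-adjusted Mueller Hinton broth face ten twofold compound dilutions for 22 h at 35° C.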

[1] = ATCC25922, Table 7, cation adjusted Mueller Hinton Broth + 0.002% Tween-80, 35° C., 22 hours
[2] = ATCC25922, 22 h, Table 6, cation adjusted Mueller Hinton Broth + 0.002% Tween-80, 35° C.
[3] = ATCC25922, Table 6, cation adjusted Mueller Hinton Broth + 0.002% Tween-80, 35° C., 22 hours

Structure (SMILES): Cc1nc(-c2ccc(C(C)(C)C)cc2)nc(C)c1C(=O)N[C@@H](CCN)C(=O)N(C)[C@@H]1C(=O)N[C@@H](C)C(=O)N[C@H](C(=O)NCC#N)Cc2cc(c(O)cc2CN)-c2cc1ccc2OCCN (racemic) [Compound 626, rac-(8S,11S,14S)-18-(2-aminoethoxy)-5-(aminomethyl)-N-(cyanomethyl)-3-hydroxy-11-methyl-14-[methyl-[rac-(2S)-4-amino-2-[[2-(4-tert-butylphenyl)-4,6-dimethyl-pyrimidine-5-carbonyl]amino]butanoyl]amino]-10,13-dioxo-9,12-diazatricyclo[13.3.1.12,6]icosa-1(18),2(20),3,5,15(19),16-hexaene-8-carboxamide]
- MIC [1]: 0.25 µM

Structure (SMILES): COc1cc(OCCN)c2cc1-c1cc(ccc1OCCN)[C@H](N(C)C(=O)[C@H](CNS(N)(=O)=O)NC(=O)c1c(C)nc(-c3ccc(C(C)(C)C)cc3)nc1C)C(=O)N[C@@H](C)C(=O)N[C@H](C(=O)NCC#N)C2 (racemic) [Compound 627, rac-(8S,11S,14S)-5,18-bis(2-aminoethoxy)-N-(cyanomethyl)-3-methoxy-11-methyl-14-[methyl-[rac-(2S)-2-[[2-(4-tert-butylphenyl)-4,6-dimethyl-pyrimidine-5-carbonyl]amino]-3-(sulfamoylamino)propanoyl]amino]-10,13-dioxo-9,12-diazatricyclo[13.3.1.12,6]icosa-1(18),2(20),3,5,15(19),16-hexaene-8-carboxamide]
- MIC [1]: 0.5 µM

Structure (SMILES): Cc1nc(-c2ccc(C(C)(C)C)cc2)nc(C)c1C(=O)N[C@@H](CNS(N)(=O)=O)C(=O)N(C)[C@@H]1C(=O)N[C@@H](C)C(=O)N[C@H](C(=O)NCC#N)Cc2cc(c(O)cc2OCCN)-c2cc1ccc2OCCN (racemic) [Compound 628, rac-(8S,11S,14S)-5,18-bis(2-aminoethoxy)-N-(cyanomethyl)-3-hydroxy-11-methyl-14-[methyl-[rac-(2S)-2-[[2-(4-tert-butylphenyl)-4,6-dimethyl-pyrimidine-5-carbonyl]amino]-3-(sulfamoylamino)propanoyl]amino]-10,13-dioxo-9,12-diazatricyclo[13.3.1.12,6]icosa-1(18),2(20),3,5,15(19),16-hexaene-8-carboxamide]
- MIC [1]: 0.44 µM

- MIC (ATCC25922, 22 h, Table 7, cation adjusted Mueller Hinton Broth + 0.002% Tween-80, 35° C.): 0.25 µM
Structure (SMILES): Cc1nc(-c2ccc(C(C)(C)C)cc2)nc(C)c1C(=O)N[C@@H](CCN)C(=O)N(C)[C@@H]1C(=O)N[C@@H](C)C(=O)N[C@H](C(=O)NCC#N)Cc2ccc(OCCN)c(c2)-c2cc1ccc2CN (racemic) [Compound 634, rac-(8S,11S,14S)-3-(2-aminoethoxy)-18-(aminomethyl)-N-(cyanomethyl)-11-methyl-14-[methyl-[rac-(2S)-4-amino-2-[[2-(4-tert-butylphenyl)-4,6-dimethyl-pyrimidine-5-carbonyl]amino]butanoyl]amino]-10,13-dioxo-9,12-diazatricyclo[13.3.1.12,6]icosa-1(18),2,4,6(20),15(19),16-hexaene-8-carboxamide]

- MIC (ATCC25922, 22 h, Table 8, cation adjusted Mueller Hinton Broth + 0.002% Tween-80, 35° C.): 0.25 µM
Structure (SMILES): Cc1nc(-c2ccc(C(C)(C)C)cc2)ncc1C(=O)N[C@@H](CCN)C(=O)N(C)[C@@H]1C(=O)N[C@@H](C)C(=O)N[C@H](C(=O)O)Cc2ccc(OCCN)c(c2)-c2cc1ccc2OCCN (racemic) [Compound 640, rac-(8S,11S,14S)-3,18-bis(2-aminoethoxy)-11-methyl-14-[methyl-[rac-(2S)-4-amino-2-[[2-(4-tert-butylphenyl)-4-methyl-pyrimidine-5-carbonyl]amino]butanoyl]amino]-10,13-dioxo-9,12-diazatricyclo [13.3.1.12,6]icosa-1(18),2(20),3,5,15(19), 16-hexaene-8-carboxylic acid]

- MIC [2]: 1 µM
Structure (SMILES): Cc1nc(-c2ccc(C(C)(C)C)cc2)nc(C)c1C(=O)N[C@@H](CCN)C(=O)N(C)[C@@H]1C(=O)N[C@@H](C)C(=O)N[C@H](C(=O)NCC#N)Cc2ccc3c(c2)-c2cc1ccc2OCC(O)(CN)CO3 (some centres unmarked) [Compound 440]

- MIC [2]: 0.5 µM
Structure (SMILES): C[C@@H]1NC(=O)[C@@H](N(C)C(=O)[C@H](CCN)NC(=O)C2C3CC(c4ccc(C(C)(C)C)cc4)CC32)c2ccc(OCCN)c(c2)-c2cc(ccc2OCCN)C[C@@H](C(=O)NCC#N)NC1=O (some centres unmarked) [Compound 488]

Structure (SMILES): CC(=O)NCC[C@H](NC(=O)c1c(C)nc(-c2ccc(OC3CCCCC3)cc2)nc1C)C(=O)N(C)[C@@H]1C(=O)N[C@@H](C)C(=O)N[C@H](C(=O)NCC#N)Cc2ccc(OCCN)c(c2)-c2cc1ccc2OCCN [Compound 496, (8S,11S,14S)-14-[[(2S)-4-acetamido-2-[[2-[4-(cyclohexoxy)phenyl]-4,6-dimethyl-pyrimidine-5-carbonyl]amino]butanoyl]-methyl-amino]-3,18-bis(2-aminoethoxy)-N-(cyanomethyl)-11-methyl-10,13-dioxo-9,12-diazatricyclo[13.3.1.12,6]icosa-1(18),2(20),3,5,15(19),16-hexaene-8-carboxamide]
- MIC [3]: 1 µM

Structure (SMILES): Cc1nc(-c2ccc(OC3CCCCC3)cc2)nc(C)c1C(=O)N[C@@H](CC(N)=O)C(=O)N(C)[C@@H]1C(=O)N[C@@H](C)C(=O)N[C@H](C(=O)NCC#N)Cc2ccc(OCCN)c(c2)-c2cc1ccc2OCCN [Compound 506, (2S)-N-[(7S,10S,13S)-3,18-bis(2-aminoethoxy)-13-(cyanomethylcarbamoyl)-10-methyl-8,11-dioxo-9,12-diazatricyclo[13.3.1.12,6]icosa-1(19),2,4,6(20),15,17-hexaen-7-yl]-2-[[2-[4-(cyclohexoxy)phenyl]-4,6-dimethyl-pyrimidine-5-carbonyl]amino]-N-methyl-butanediamide]
- MIC [3]: 0.83 µM

Structure (SMILES): CC[C@H](NC(=O)c1c(C)nc(-c2ccc(OC3CCCCC3)cc2)nc1C)C(=O)N[C@@H](CCN)C(=O)N(C)[C@@H]1C(=O)N[C@@H](C)C(=O)N[C@H](C(=O)NCC#N)Cc2ccc(OCCN)c(c2)-c2cc1ccc2OCCN [Compound 510, (8S,11S,14S)-14-[[(2S)-4-amino-2-[[(2S)-2-[[2-[4-(cyclohexoxy)phenyl]-4,6-dimethyl-pyrimidine-5-carbonyl]amino]butanoyl]amino]butanoyl]-methyl-amino]-3,18-bis(2-aminoethoxy)-N-(cyanomethyl)-11-methyl-10,13-dioxo-9,12-diazatricyclo[13.3.1.12,6]icosa-1(18),2(20),3,5,15(19),16-hexaene-8-carboxamide]
- MIC [3]: 1.5 µM

Structure (SMILES): Cc1nc(-c2ccc(OC3CCCCC3)cc2)nc(C)c1C(=O)N[C@@H](CCNC(=O)CO)C(=O)N(C)[C@@H]1C(=O)N[C@@H](C)C(=O)N[C@H](C(=O)NCC#N)Cc2ccc(OCCN)c(c2)-c2cc1ccc2OCCN [Compound 511, (8S,11S,14S)-3,18-bis(2-aminoethoxy)-N-(cyanomethyl)-14-[[(2S)-2-[[2-[4-(cyclohexoxy)phenyl]-4,6-dimethyl-pyrimidine-5-carbonyl]amino]-4-[(2-hydroxyacetyl)amino]butanoyl]-methyl-amino]-11-methyl-10,13-dioxo-9,12-diazatricyclo[13.3.1.12,6]icosa-1(18),2(20),3,5,15(19),16-hexaene-8-carboxamide]
- MIC [3]: 2 µM
